Assay results taken from patent US8252748B2, “Peptide derived from neurotensin receptor 3 and use thereof in the treatment of psychiatric diseases” (Centre National de la Recherche Scientifique—CNRS, priority 2007, dated 2012).
No end group written: not given here.

What was measured:
[1] = test system: mouse (C57Black/J); test: Conditioned motility suppression test (CMST); assay type: in vivo; conditions: propeptide IV 100 μl at 1 μM per animal; 30 min after injection
From the text: The inventors conducted three types of behavioral experiments that are regarded as classical for determining the antidepressant activity of a substance (Nestler E. J., Gould E., Manji H., Buncan M., Duman R. S., Greshenfeld H. K., Hen, R. et al. “Preclinical models: status of basic research in depression” Biol Psychiatry. 15, 503-528 (2002) (20) and Cryan, J. & Holmes, A. “The ascent of mouse: advances in modeling human depression and anxiety” Nat Rev Drug Discov. 4, 775-790 (2005) (21)). The effects of the propeptide of the present invention were compared with those of the saline solution in which it is dissolved and with those of fluoxetine, one of the most-used antidepressants in clinical practice. The mouse strain used is C57Black/J strain. TREK-1^−/− mice were also measured in these various tests.
In the next two tests, the propeptide of the present invention was administered by the IV route at a rate of 100 μl at 1 μM per animal.
C. Conditioned Motility Suppression Test (CMST) (see Daugé, V., Sebret, A., Beslot, F., Matsui, T., & Rogues B. “Behavioral profile of CCK2 receptor-deficient mice” Neuropsychopharmacol; 25: 690-698 (2001) (23).
The experiment consists of conditioning the mouse on day 1, and measuring the effects of the substances on day 2.
On day 1, each mouse is placed in a box where the floor is a metal grille connected to an electric stimulator. […]

[2] = test system: C57BL6/J mice; test: Hot plate test of sensitivity to pain; assay type: in vivo, mouse; conditions: IV 100 μl at 10^−6 M, 30 minutes after injection
Procedure: Sensitivity to pain was measured with two tests: the hot plate test and the “tail flick” test.
This test consists of measuring the time that a mouse licks its hind paws when it is put on a plate maintained at a given temperature. Two temperatures were used: 50 and 56° C.
The mice used were C57BL6/J mice. Each group was constituted of 10 mice.
The sensitivity to heat was then measured on the three groups of mice and the results obtained were compared.
The measurements were taken 30 minutes after injection.
The statistical difference was measured using the one-factor ANOVA test followed by the post-hoc test.

[3] = test system: C57BL6/J mice; test: Focal ischemia (middle cerebral artery occlusion), infarct size; assay type: in vivo, mouse; conditions: daily IP 100 μl at 10^−5 M for a week, vs physiological saline
Procedure: The model used for inducing a CVA is that of focal ischemia, which consists of occlusion of the middle cerebral artery with a thread (Heurteaux C., Laigle, C., Blondeau, N., Jarretou, G., Lazdunski, M. “Alpha-linolenic acid and riluzole treatment confer cerebral protection and improve survival after focal brain ischemia” Neuroscience, 137: 241-251 (2006) (27). The size of the infarcts caused by this focal ischemia was measured after staining brain sections with cresyl violet. The infarct is measured by tracing the contour of the infarct zone by an image analysis system (Olympus DP Soft) according to the method described in Heurteaux et al., 2006 (27). The brains of C57BL6/J mice (at the rate of 10 mice per experimental group) are treated for a week with a daily intraperitoneal injection of 100 μl of a solution containing either the peptide of sequence ID No. 2 at a concentration of 10^−5M (“PE 10^−5M” group), or with a solution of physiological saline solution (“PHYS SALINE” group). The values were compared between the two groups.
(§1) The difference was evaluated using the Student t test.

[4] = test system: C57BL6/J mice; test: Intake of food and drinking water after long-term treatment; assay type: in vivo, mouse; conditions: daily IP 100 μl at 10^−5 M for 15 days; 6 and 72 hours after end of treatment
Procedure: The intake of food and of drinking water was also measured. Two experimental groups of C57BL6/J mice (n=10 per group) were used: the first group received an intraperitoneal injection daily for 15 days of 100 μl of physiological saline solution (“PHYS SALINE”), the second group received an intraperitoneal injection daily for 15 days of 100 μl of a solution containing the peptide of sequence ID No. 2 at a concentration of 10^−5M (“PE 10^−5 M”).
These measurements were taken 6 and 72 hours after the end of long-term treatment.
as §1

In the case of “APLPRWSGPIGVSWGLR [propeptide, APLPRWSGPIGVSWGLR]”, the “motility relative to untreated shocked mice” value [1] is reported as 7 times greater, the “reaction time on hot plate” value ([2]; 50° C.) is reported as 21.1 ± 1.5 s and the “reaction time on hot plate” value ([2]; 56° C.) is reported as 4.6 ± 0.9 s. For the same sequence, the “size of the infarct caused by focal ischemia” value [3] was “does not have a significant effect”, the food intake [4] was “does not have a significant effect” and the “intake of drinking water” value [4] was “no significant difference”.
